Source: US11566007B2, “Ras inhibitors” (Revolution Medicines, Inc., priority 2019, dated 2023)
Values joined by “and” are separate entries in the source; they are usually repeats but may differ in a detail not shown here. Identical values can stand only once. Like-named read-outs stand apart in the source and are kept apart here.

What was measured:
[1] = target: KRAS G12V (Homo sapiens (Human), UniProt P01116+P62937, G12V); test: Ras-Raf (BRAF RBD) disruption / FRET / MOA assay, KRAS G12V; assay type: biochemical; conditions: read-out: IC50* KRAS G12V FRET data
Method in brief: (§1)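 Ras:RAF disruption was scored as a fall in TR-FRET ratio relative to DMSO. Compound ranged in 3-fold steps over 10 points from 30 μM final; incubation ran 3 h at 25° C, detection antibodies a further 1.5 h. Reported as IC50.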

[2] = target: K-Ras G12C (Homo sapiens (Human), UniProt P01116+P62937, G12C); test: Ras-Raf (BRAF RBD) disruption / FRET / MOA assay, KRAS G12C; assay type: biochemical; conditions: KRAS G12C; Ras-Raf disruption/FRET/MOA assay; read-out: IC50* KRAS G12C FRET data
Method in brief: as §1

[3] = target: NRAS G12C (Homo sapiens (Human), UniProt P01111+P62937, G12C); test: Ras-Raf (BRAF RBD) disruption / FRET / MOA assay, NRAS G12C; assay type: biochemical; conditions: read-out: IC50* NRAS G12C FRET data
Method in brief: as §1

[4] = system: NCI-H358 (K-Ras G12C); test: CellTiter-Glo cell viability assay, NCI-H358; assay type: cell-based, human; conditions: NCI-H358, 5-day treatment, class symbols, read-out: Additional H358 Cell Viability assay data (K-Ras G12C, IC50)
Method in brief: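 Four-parameter logistic fits were applied to luminescence data normalized against DMSO-treated wells. Readings were taken on day 5 following direct compound addition, after roughly 30 minutes at room temperature.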

[5] = target: KRAS G13D (Homo sapiens (Human), UniProt P01116+P62937, G13D); test: Ras-Raf (BRAF RBD) disruption / FRET / MOA assay, KRAS G13D; assay type: biochemical; conditions: read-out: IC50* KRAS G13D FRET data
Method in brief: as §1

[6] = target: KRAS WT (Homo sapiens (Human), UniProt P01116+P62937); test: Ras-Raf (BRAF RBD) disruption / FRET / MOA assay, KRAS WT; assay type: biochemical; conditions: read-out: IC50* KRAS WT FRET data
Method in brief: as §1

[7] = target: KRAS G12S (Homo sapiens (Human), UniProt P01116+P62937, G12S); test: Ras-Raf (BRAF RBD) disruption / FRET / MOA assay, KRAS G12S; assay type: biochemical; conditions: Ras-Raf disruption/FRET/MOA assay; class symbols; read-out: KRAS G12S FRET data IC50
Method in brief: as §1

[8] = target: K-Ras G13C (Homo sapiens (Human), UniProt P01116+P62937, G13C); test: Ras-Raf (BRAF RBD) disruption / FRET / MOA assay, KRAS G13C; assay type: biochemical; conditions: KRAS G13C; Ras-Raf disruption/FRET/MOA assay; read-out: IC50* KRAS G13C FRET data
Method in brief: as §1

[9] = system: NCI-H358 cells (K-Ras G12C); test: Potency assay: pERK in NCI-H358 cells; assay type: cell-based, human; conditions: Homo sapiens, NCI-H358; H358 KRAS G12C; read-out: pERK EC50
Method in brief: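 Compounds are dosed as ten 3-fold dilutions from a 10 mM DMSO stock, in duplicate, and left on cells for 4 h at 37 °C, 5% CO2. Phospho-ERK1/2 is then quantified by AlphaLISA SureFire Ultra or In-Cell Western, and IC50 is derived from a 4-parameter sigmoid against log concentration.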

[10] = target: KRAS G12D (Homo sapiens (Human), UniProt P01116+P62937, G12D); test: Ras-Raf (BRAF RBD) disruption / FRET / MOA assay, KRAS G12D; assay type: biochemical; conditions: Ras-Raf disruption/FRET/MOA assay; class symbols; read-out: KRAS G12D FRET data IC50
Method in brief: as §1

Sequence of NRAS G12C (P01111 whole entry G12C): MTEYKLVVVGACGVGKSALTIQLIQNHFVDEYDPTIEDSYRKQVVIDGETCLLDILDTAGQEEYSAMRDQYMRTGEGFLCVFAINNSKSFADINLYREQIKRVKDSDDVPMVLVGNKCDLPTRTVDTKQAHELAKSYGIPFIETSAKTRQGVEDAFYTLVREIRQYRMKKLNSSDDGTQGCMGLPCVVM
Sequence of NRAS G12C (P62937 whole entry): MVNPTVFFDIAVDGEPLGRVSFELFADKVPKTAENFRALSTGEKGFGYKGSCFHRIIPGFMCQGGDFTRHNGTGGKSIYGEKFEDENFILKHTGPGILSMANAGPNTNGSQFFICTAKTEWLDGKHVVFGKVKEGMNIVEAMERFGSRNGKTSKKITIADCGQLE
Sequence of K-Ras G13C (P01116-2 other isoform, or with tags, fused parts or gaps G13C): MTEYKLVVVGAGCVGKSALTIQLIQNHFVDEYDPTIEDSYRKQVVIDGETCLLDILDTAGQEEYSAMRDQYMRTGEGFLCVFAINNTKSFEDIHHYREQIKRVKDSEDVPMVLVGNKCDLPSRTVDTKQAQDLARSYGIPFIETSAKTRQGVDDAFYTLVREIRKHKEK
Sequence of K-Ras G13C (P62937 whole entry): as the sequence (P62937 whole entry) above
Sequence of KRAS G12S (P01116-2 other isoform, or with tags, fused parts or gaps G12S): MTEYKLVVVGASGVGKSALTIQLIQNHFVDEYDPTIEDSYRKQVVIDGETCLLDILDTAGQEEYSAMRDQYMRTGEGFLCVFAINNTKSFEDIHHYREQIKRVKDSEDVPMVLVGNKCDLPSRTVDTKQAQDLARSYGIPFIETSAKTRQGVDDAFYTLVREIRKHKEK
Sequence of KRAS G12S (P62937 whole entry): as the sequence (P62937 whole entry) above
Sequence of KRAS G12V (P01116-2 other isoform, or with tags, fused parts or gaps G12V): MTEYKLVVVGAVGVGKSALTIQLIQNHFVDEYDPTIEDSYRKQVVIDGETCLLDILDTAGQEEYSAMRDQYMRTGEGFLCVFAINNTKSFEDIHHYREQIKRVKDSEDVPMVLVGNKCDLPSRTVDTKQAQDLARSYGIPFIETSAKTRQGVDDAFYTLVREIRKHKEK
Sequence of KRAS G12V (P62937 whole entry): as the sequence (P62937 whole entry) above
Sequence of K-Ras G12C (P01116-2 other isoform, or with tags, fused parts or gaps G12C): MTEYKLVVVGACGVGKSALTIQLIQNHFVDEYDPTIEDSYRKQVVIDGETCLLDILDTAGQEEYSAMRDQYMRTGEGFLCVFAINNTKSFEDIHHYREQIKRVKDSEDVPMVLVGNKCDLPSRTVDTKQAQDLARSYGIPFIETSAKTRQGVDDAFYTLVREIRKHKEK
Sequence of K-Ras G12C (P62937 whole entry): as the sequence (P62937 whole entry) above
Sequence of KRAS G12D (P01116-2 other isoform, or with tags, fused parts or gaps G12D): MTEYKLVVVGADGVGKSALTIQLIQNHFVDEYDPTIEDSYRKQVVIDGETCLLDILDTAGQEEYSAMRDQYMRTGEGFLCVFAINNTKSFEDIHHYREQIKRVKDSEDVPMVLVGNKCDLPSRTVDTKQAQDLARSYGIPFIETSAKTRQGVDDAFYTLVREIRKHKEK
Sequence of KRAS G12D (P62937 whole entry): as the sequence (P62937 whole entry) above
Sequence of KRAS G13D (P01116-2 other isoform, or with tags, fused parts or gaps G13D): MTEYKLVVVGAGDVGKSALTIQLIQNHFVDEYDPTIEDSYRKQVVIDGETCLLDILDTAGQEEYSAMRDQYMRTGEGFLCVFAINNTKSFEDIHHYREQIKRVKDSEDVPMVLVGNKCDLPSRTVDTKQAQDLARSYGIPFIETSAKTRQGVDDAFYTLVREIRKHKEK
Sequence of KRAS G13D (P62937 whole entry): as the sequence (P62937 whole entry) above
Sequence of KRAS WT (P01116-2 other isoform, or with tags, fused parts or gaps): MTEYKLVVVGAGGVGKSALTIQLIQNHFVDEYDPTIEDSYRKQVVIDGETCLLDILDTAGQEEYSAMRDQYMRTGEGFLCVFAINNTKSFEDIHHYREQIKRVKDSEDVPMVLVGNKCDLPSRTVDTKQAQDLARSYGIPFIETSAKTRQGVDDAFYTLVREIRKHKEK
Sequence of KRAS WT (P62937 whole entry): as the sequence (P62937 whole entry) above

Compound | IC50 [1] | IC50 [2] | IC50 [3] | IC50 ([4]; Homo sapiens, NCI-H358, 120 h) [nM] | IC50 [5] | IC50 [6] | IC50 [7] | IC50 [8] | EC50 [9] [nM] | IC50 [10] | IC50 [4] [nM]
CCn1c(-c2cccnc2[C@H](C)OC)c2c3cc(ccc31)-c1cccc(c1)C[C@H](NC(=O)[C@H](C(C)C)N(C)C(=O)[C@H]1CCN(C(=O)C#CCN(C)C)C1)C(=O)N1CCC[C@H](N1)C(=O)OCC(C)(C)C2 (atropisomer, axis not shown) [Example A121] | 1000 to 10000 nM and > 10000 nM | 10 to 100 nM and < 10 nM | 10 to 100 nM and < 10 nM | 10 to 100 | 1000 to 10000 nM | 1000 to 10000 nM and > 10000 nM | 1000 to 10000 nM and > 10000 nM | 10 to 100 nM and 1000 to 10000 nM | < 5000 | 1000 to 10000 nM | 
C=CS(=O)(=O)N1CC[C@H](C(=O)N(C)[C@H](C(=O)N[C@H]2Cc3cccc(c3)-c3ccc4c(c3)c(c(-c3cccnc3[C@H](C)OC)n4CC)CC(C)(C)COC(=O)[C@@H]3CCCN(N3)C2=O)C(C)C)C1 (atropisomer, axis not shown) [Example A124] | 1000 to 10000 nM and > 10000 nM | 10 to 100 nM and 1000 to 10000 nM | 10 to 100 nM and 1000 to 10000 nM | 10 to 100 | > 10000 nM | 1000 to 10000 nM and > 10000 nM | 1000 to 10000 nM and > 10000 nM | 10 to 100 nM and 1000 to 10000 nM | < 5000 | > 10000 nM | 
CCn1c(-c2cccnc2[C@H](C)OC)c2c3cc(ccc31)-c1cc(O)cc(c1)C[C@H](NC(=O)[C@H](C(C)C)N(C)C(=O)[C@H]1CCN(C(=O)C#CCN(C)C)C1)C(=O)N1CCC[C@H](N1)C(=O)OCC(C)(C)C2 (atropisomer, axis not shown) [Example A131] | 100 to 1000 nM and 1000 to 10000 nM | < 10 nM | < 10 nM | < 10 | 100 to 1000 nM and 1000 to 10000 nM | 100 to 1000 nM and 1000 to 10000 nM | 100 to 1000 nM and 1000 to 10000 nM | 10 to 100 nM and < 10 nM | < 5000 | 1000 to 10000 nM and 100 to 1000 nM | 
C=CS(=O)(=O)N1CC[C@H](C(=O)N(C)[C@H](C(=O)N[C@H]2Cc3cc(O)cc(c3)-c3ccc4c(c3)c(c(-c3cccnc3[C@H](C)OC)n4CC)CC(C)(C)COC(=O)[C@@H]3CCCN(N3)C2=O)C(C)C)C1 (atropisomer, axis not shown) [Example A132] | 1000 to 10000 nM and 10 to 100 nM | 10 to 100 nM and < 10 nM | 10 to 100 nM and < 10 nM | 10 to 100 | 100 to 1000 nM and 1000 to 10000 nM | 1000 to 10000 nM and 10 to 100 nM | 100 to 1000 nM and 1000 to 10000 nM | 10 to 100 nM and < 10 nM | < 5000 | 1000 to 10000 nM and > 10000 nM | 
CCn1c(-c2cccnc2COC)c2c3cc(ccc31)-c1cc(O)cc(c1)C[C@H](NC(=O)[C@H](C(C)C)N(C)C(=O)[C@H]1CCN(C(=O)C#CCOC)C1)C(=O)N1CCC[C@H](N1)C(=O)OCC(C)(C)C2 (atropisomer, axis not shown) [Example A135] | 100 to 1000 nM and 1000 to 10000 nM | 10 to 100 nM and < 10 nM | 10 to 100 nM and < 10 nM | 10 to 100 | 1000 to 10000 nM and > 10000 nM | 1000 to 10000 nM and > 10000 nM | 100 to 1000 nM and 1000 to 10000 nM | 10 to 100 nM and 100 to 1000 nM | < 5000 | 1000 to 10000 nM and > 10000 nM | 
CCn1c(-c2cccnc2COC)c2c3cc(ccc31)-c1cccc(c1)C[C@H](NC(=O)[C@H](C(C)C)N(C)C(=O)[C@H]1CCN(C(=O)C#CCN(C)C)C1)C(=O)N1CCC[C@H](N1)C(=O)OCC(C)(C)C2 (atropisomer, axis not shown) [Example A138] | 1000 to 10000 nM | 10 to 100 nM | 10 to 100 nM | < 10 | 1000 to 10000 nM | 1000 to 10000 nM | > 10000 nM | 100 to 1000 nM | < 5000 | 1000 to 10000 nM | 
CCn1c(-c2cncnc2C(C)C)c2c3cc(ccc31)-c1cc(O)cc(c1)C[C@H](NC(=O)[C@H](C(C)C)N(C)C(=O)[C@H]1CCN(C(=O)C#CCN(C)C)C1)C(=O)N1CCC[C@H](N1)C(=O)OCC(C)(C)C2 (atropisomer, axis not shown) [Example A155] | 100 to 1000 nM and 10 to 100 nM | 10 to 100 nM | 10 to 100 nM and < 10 nM | 10 to 100 | 1000 to 10000 nM and 10 to 100 nM | 1000 to 10000 nM and 10 to 100 nM | 1000 to 10000 nM and 10 to 100 nM | 10 to 100 nM and < 10 nM | < 5000 | 1000 to 10000 nM and 100 to 1000 nM | < 10
CCn1c(-c2ccccc2CN(C)C)c2c3cc(ccc31)-c1cc(O)cc(c1)C[C@H](NC(=O)[C@H](C(C)C)N(C)C(=O)c1ncc(NC(=O)/C=C/CN(C)C)s1)C(=O)N1CCC[C@H](N1)C(=O)OCC(C)(C)C2 (atropisomer, axis not shown) [Example A163] | > 10000 nM | 1000 to 10000 nM | 1000 to 10000 nM | > 1000 | 1000 to 10000 nM | 1000 to 10000 nM | > 10000 nM | 10 to 100 nM | < 5000 | 1000 to 10000 nM | 
CC#CC(=O)N1CC[C@H](C(=O)N(C)[C@H](C(=O)N[C@H]2Cc3cccc(c3)-c3ccc4c(c3)c(c(-c3cccnc3[C@H](C)OC)n4CC)CC(C)(C)COC(=O)[C@@H]3CCCN(N3)C2=O)C(C)C)C1 (atropisomer, axis not shown) [Example A173] | 1000 to 10000 nM | 100 to 1000 nM | 100 to 1000 nM | 10 to 100 | > 10000 nM | > 10000 nM | 1000 to 10000 nM | > 10000 nM | < 5000 | > 10000 nM | 
CCn1c(-c2cncnc2[C@H](C)OC)c2c3cc(ccc31)-c1cc(O)cc(c1)C[C@H](NC(=O)[C@H](C(C)C)N(C)C(=O)[C@H]1CCN(C(=O)C#CCN3CCOCC3)C1)C(=O)N1CCC[C@H](N1)C(=O)OCC(C)(C)C2 (atropisomer, axis not shown) [Example A182] | 100 to 1000 nM and 1000 to 10000 nM | 10 to 100 nM and < 10 nM | 10 to 100 nM and < 10 nM | 10 to 100 | 100 to 1000 nM and 1000 to 10000 nM | 100 to 1000 nM and 1000 to 10000 nM | 100 to 1000 nM and 1000 to 10000 nM | 10 to 100 nM and 1000 to 10000 nM | < 5000 | 1000 to 10000 nM and > 10000 nM | < 10
C=CC(=O)N1CC[C@H](C(=O)N(C)[C@H](C(=O)NC2C[C@@H]3CN(CCO3)c3ccc4c(c3)c(c(-c3cccnc3[C@H](C)OC)n4CC)CC(C)(C)COC(=O)[C@@H]3CCCN(N3)C2=O)C(C)C)C1 (stereo partly drawn) [Example A312] | > 10000 nM | > 10000 nM | > 10000 nM | > 1000 | > 10000 nM | > 10000 nM | > 10000 nM | > 10000 nM |  | > 10000 nM | 
C=CC(=O)N1CC[C@H](C(=O)N(C)[C@H](C(=O)N[C@H]2Cc3cccc(c3)-c3ccc4c(c3)c(c(-c3cc(CN(C)C)cnc3[C@H](C)OC)n4CC)CC(C)(C)COC(=O)[C@@H]3CCCN(N3)C2=O)C(C)C)C1 [Example A523] | > 10000 nM | 1000 to 10000 nM | 1000 to 10000 nM | 100 to 1000 | > 10000 nM | > 10000 nM | > 10000 nM | > 10000 nM |  | > 10000 nM | 
